Source: PubChem BioAssay (NCI)
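All cell lines were grown in 96-well plates and treated with compound for 48 hours. GI50 marks 50% less growth. TGI marks complete inhibition of growth.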

Legend:
Experiment in all cases: DTP human tumour cell line panel, 48 h
[1] = system: HS 578T breast
[2] = system: MOLT-4 leukemia
[3] = system: SK-MEL-5 melanoma
[4] = system: SN12C renal
[5] = system: HCT-15 colon
[6] = system: A549 NSCLC
[7] = system: A498 renal
[8] = system: DU-145 prostate
[9] = system: T-47D breast
[10] = system: EKVX NSCLC
[11] = system: COLO 205 colon
[12] = system: HCT-116 colon
[13] = system: KM12 colon
[14] = system: HCC-2998 colon
[15] = system: 786-0 renal
[16] = system: OVCAR-3 ovarian
[17] = system: NCI-H23 lung
[18] = system: RPMI-8226 leukemia
[19] = system: NCI-H522 lung
[20] = system: NCI-H226 lung
[21] = system: MDA-MB-435
[22] = system: SF-295 CNS
[23] = system: SK-MEL-28 melanoma
[24] = system: PC-3 prostate
[25] = system: SR leukemia
[26] = system: OVCAR-4 ovarian
[27] = system: OVCAR-8 ovarian
[28] = system: K-562 leukemia
[29] = system: IGROV1 ovarian
[30] = system: UO-31 renal
[31] = system: HOP-62 NSCLC
[32] = system: ACHN renal
[33] = system: TK-10 renal
[34] = system: LOX IMVI melanoma
[35] = system: HOP-92 NSCLC
[36] = system: MDA-MB-231 breast
[37] = system: SK-MEL-2 melanoma
[38] = system: UACC-257 melanoma
[39] = system: BT-549 breast
[40] = system: CCRF-CEM leukemia
[41] = system: NCI/ADR-RES ovarian
[42] = system: SF-268 CNS
[43] = system: CAKI-1 renal
[44] = system: OVCAR-5 ovarian
[45] = system: SF-539 CNS
[46] = system: U251 CNS
[47] = system: RXF 393 renal
[48] = system: NCI-H460 lung
[49] = system: HT29 colon
[50] = system: M14 melanoma
[51] = system: SW-620 colon
[52] = system: SNB-75 CNS
[53] = system: SK-OV-3 ovarian
[54] = system: HL-60(TB) leukemia
[55] = system: SNB-19 CNS
[56] = system: MCF7 breast
[57] = system: UACC-62 melanoma
[58] = system: MALME-3M melanoma

SMILES: CN(C)c1ccc(/C=C(\NC(=O)c2ccccc2)C(=O)NC(CC(=O)O)C(=O)O)cc1 (centres undefined)
- TGI [1]: > 100000 nM
- TGI [2]: > 100000 nM
- TGI [3]: > 100000 nM
- TGI [4]: > 100000 nM
- TGI [5]: > 100000 nM
- TGI [6]: > 100000 nM
- TGI [7]: > 100000 nM
- TGI [8]: > 100000 nM
- TGI [9]: > 100000 nM
- TGI [10]: > 100000 nM
- TGI [11]: > 100000 nM
- TGI [12]: > 100000 nM
- TGI [13]: > 100000 nM
- TGI [14]: > 100000 nM
- TGI [15]: > 100000 nM
- TGI [16]: > 100000 nM
- TGI [17]: > 100000 nM
- TGI [18]: > 100000 nM
- TGI [19]: 46800 nM
- TGI [20]: > 100000 nM
- TGI [21]: > 100000 nM
- TGI [22]: > 100000 nM
- TGI [23]: > 100000 nM
- TGI [24]: > 100000 nM
- TGI [25]: > 100000 nM
- TGI [26]: > 100000 nM
- TGI [27]: > 100000 nM
- TGI [28]: 33300 nM
- TGI [29]: > 100000 nM
- TGI [30]: > 100000 nM
- TGI [31]: > 100000 nM
- TGI [32]: > 100000 nM
- TGI [33]: > 100000 nM
- TGI [34]: > 100000 nM
- TGI [35]: > 100000 nM
- TGI [36]: > 100000 nM
- TGI [37]: > 100000 nM
- TGI [38]: > 100000 nM
- TGI [39]: > 100000 nM
- TGI [40]: > 100000 nM
- TGI [41]: > 100000 nM
- TGI [42]: > 100000 nM
- TGI [43]: > 100000 nM
- TGI [44]: > 100000 nM
- TGI [45]: > 100000 nM
- TGI [46]: > 100000 nM
- TGI [47]: > 100000 nM
- TGI [48]: > 100000 nM
- TGI [49]: > 100000 nM
- TGI [50]: > 100000 nM
- TGI [51]: > 100000 nM
- TGI [52]: 94500 nM
- TGI [53]: > 100000 nM
- TGI [54]: > 100000 nM
- TGI [55]: > 100000 nM
- TGI [56]: > 100000 nM
- TGI [57]: > 100000 nM

SMILES: COC(=O)OC1C(O[C@H]2C[C@H]3[C@@H]4CC=C5C[C@@H](O)CC[C@]5(C)[C@H]4CC[C@]3(C)[C@H]2[C@H](C)C(=O)CCC(C)C)OCC(O)C1OC1OCC(O)C(O)C1OC(=O)c1ccc(OC)cc1 (some centres undefined)
- GI50 [1]: < 2.75 nM
- TGI [1]: 41.6 nM
- GI50 [2]: 6.95 nM
- TGI [2]: 17.8 nM
- GI50 [3]: 14 nM
- TGI [3]: 279 nM
- GI50 [4]: 1460 nM
- TGI [4]: > 27500 nM
- GI50 [5]: 137 nM
- TGI [5]: 1260 nM
- GI50 [6]: 12.5 nM
- TGI [6]: 5240 nM
- GI50 [7]: < 2.75 nM
- TGI [7]: 10.8 nM
- GI50 [8]: 12.7 nM
- TGI [8]: 5180 nM
- GI50 [9]: 20.9 nM
- TGI [9]: 647 nM
- GI50 [10]: 19.6 nM
- TGI [10]: 2550 nM
- GI50 [11]: 34 nM
- TGI [11]: 253 nM
- GI50 [12]: 8.86 nM
- TGI [12]: > 27500 nM
- GI50 [13]: 39 nM
- TGI [13]: 9860 nM
- GI50 [14]: 1440 nM
- TGI [14]: > 27500 nM
- GI50 [15]: < 2.75 nM
- TGI [15]: 503 nM
- GI50 [16]: 345 nM
- TGI [16]: 16800 nM
- GI50 [17]: 138 nM
- TGI [17]: 5940 nM
- GI50 [18]: < 2.75 nM
- TGI [18]: 4.91 nM
- GI50 [19]: 14.6 nM
- TGI [19]: 183 nM
- GI50 [21]: 8.74 nM
- TGI [21]: 86.8 nM
- GI50 [22]: < 2.75 nM
- TGI [22]: < 2.75 nM
- GI50 [23]: 4.3 nM
- TGI [23]: 16.1 nM
- GI50 [24]: 4.36 nM
- TGI [24]: 290 nM
- GI50 [26]: 82.3 nM
- TGI [26]: > 27500 nM
- GI50 [27]: 3170 nM
- TGI [27]: > 27500 nM
- GI50 [29]: 10.6 nM
- TGI [29]: > 27500 nM
- GI50 [30]: 17 nM
- TGI [30]: 89.8 nM
- GI50 [31]: 10.2 nM
- TGI [31]: 673 nM
- GI50 [32]: 72.1 nM
- TGI [32]: > 27500 nM
- GI50 [58]: 18.4 nM
- TGI [58]: 769 nM
- GI50 [33]: 496 nM
- TGI [33]: 17500 nM
- GI50 [35]: 49.2 nM
- TGI [35]: 1870 nM
- GI50 [36]: 82 nM
- TGI [36]: 4460 nM
- GI50 [37]: 5.38 nM
- TGI [37]: 85.5 nM
- GI50 [38]: 5.43 nM
- TGI [38]: 56.2 nM
- GI50 [39]: < 2.75 nM
- TGI [39]: 3450 nM
- GI50 [41]: > 27500 nM
- TGI [41]: > 27500 nM
- GI50 [42]: 13.7 nM
- TGI [42]: 2240 nM
- GI50 [43]: 19.1 nM
- TGI [43]: 447 nM
- GI50 [44]: 98.2 nM
- TGI [44]: 2630 nM
- GI50 [45]: < 2.75 nM
- TGI [45]: 9.1 nM
- GI50 [46]: 2.97 nM
- TGI [46]: 3910 nM
- GI50 [47]: < 2.75 nM
- TGI [47]: 9.48 nM
- GI50 [48]: 9.57 nM
- TGI [48]: 332 nM
- GI50 [49]: 41.5 nM
- TGI [49]: > 27500 nM
- GI50 [51]: 8.77 nM
- TGI [51]: 277 nM
- GI50 [52]: < 2.75 nM
- TGI [52]: 3770 nM
- GI50 [53]: 7.3 nM
- TGI [53]: 611 nM
- GI50 [55]: 15.5 nM
- TGI [55]: 2240 nM
- GI50 [56]: 10.8 nM
- TGI [56]: 545 nM
- GI50 [57]: 6.21 nM
- TGI [57]: 15.8 nM
